Experimental findings from ChEMBL document CHEMBL4385604, “Identification of Pyrrolo[2,3- d]pyrimidine-Based Derivatives as Potent and Orally Effective Fms-like Tyrosine Receptor Kinase 3 (FLT3) Inhibitors for Treating Acute Myelogenous Leukemia” (J Med Chem, 2019) are described below.

The subject of data set [1] is MV4-11. Nature of the data set: Cell cycle arrest in human MV4-11 cells assessed as accumulation at S phase at 10 nM after 24 hrs by propidium iodide staining-based flow cytometric analysis (reference value: 30.12%). It is filed as functional. Background: A flow cytometer gives signals particle by particle.
Data set [2] concerns MOLM-13. Briefly: Cell cycle arrest in human MOLM13 cells assessed as accumulation at G2/M phase at 1 nM after 24 hrs by propidium iodide staining-based flow cytometric analysis (reference value: 13.52%). It is filed as functional.
Data set [3] has as its target Receptor-type tyrosine-protein kinase FLT3 (Homo sapiens) (UniProt P36888). Briefly: Inhibition of FLT3 autophosphorylation in human MOLM13 cells assessed as ratio of phosphorylated FLT3 to beta-actin level at 30 nM after 2 hrs by Western blot analysis relative to control. The format is cell-based.
Data set [4] can be described thus: Oral bioavailability in Sprague-Dawley rat at 5 mg/kg by LC-MS/MS analysis. The format is ADME, organism-based. As to conditions: in vivo.
Data set [5] relates to MOLM-13. Nature of the data set: Cell cycle arrest in human MOLM13 cells assessed as accumulation at S phase at 1 nM after 24 hrs by propidium iodide staining-based flow cytometric analysis (reference value: 41.95%). The format is functional.
For data set [6], the system named is MV4-11. Nature of the data set: Induction of apoptosis in human MV4-11 cells assessed as viable cells at 10 uM after 48 hrs by Annexin V/propidium iodide staining based flow cytometry (reference value: 94.4%). The format is functional. The note with it: MV4-11, 48 h, read-out: Activity.
Data set [7] relates to MOLM-13. Nature of the data set: cells. As to conditions: Homo sapiens, MOLM-13, 72 h.
Description: Antiproliferative activity against human MOLM13 cells harboring FLT3-ITD mutant measured after 72 hrs by MTT assay
The test system of data set [8] is MOLM-13. Nature of the data set: Induction of apoptosis in human MOLM13 cells assessed as early apoptotic cells at 1 uM after 48 hrs by Annexin V/propidium iodide staining based flow cytometry (reference value: 5.97%). It is filed as functional.
For data set [9], the system named is HL-60. Nature of the data set: Antiproliferative activity against human HL60 cells harboring wild-type FLT3 measured after 72 hrs by MTT assay. The format is functional, cell-based. As to conditions: HL-60, 72 h. Background: Formazan colour is commonly taken as a measure of viable cells.
Data set [10] relates to MOLM-13. Briefly: Cell cycle arrest in human MOLM13 cells assessed as accumulation at S phase at 3 nM after 24 hrs by propidium iodide staining-based flow cytometric analysis (reference value: 41.95%). It is filed as functional.
The test system of data set [11] is MV4-11. Nature of the data set: cells. As to conditions: Homo sapiens, MV4-11, 72 h.
Description: Antiproliferative activity against human MV4-11 cells harboring FLT3-ITD mutant measured after 72 hrs by MTT assay
For data set [12], the target named is Receptor-type tyrosine-protein kinase FLT3 (Homo sapiens) (UniProt P36888). Nature of the data set: Inhibition of FLT3 autophosphorylation in human MOLM13 cells assessed as ratio of phosphorylated FLT3 to beta-actin level at 100 nM after 2 hrs by Western blot analysis relative to control. The format is cell-based. Background: A western blot detects proteins with antibodies after separation by electrophoresis.

Data set [13] concerns MV4-11. Nature of the data set: Cell cycle arrest in human MV4-11 cells assessed as accumulation at S phase at 1 nM after 24 hrs by propidium iodide staining-based flow cytometric analysis (reference value: 30.12%). It is filed as functional.
Data set [14] concerns Receptor-type tyrosine-protein kinase FLT3 (Homo sapiens), P36888 [UNDEFINED MUTATION]. Nature of the data set: Inhibition of FLT3 ITD mutant in human MV4-11 cells assessed as ratio of phosphorylated STAT5 to beta-actin level at 100 nM after 2 hrs by Western blot analysis relative to control. It is filed as cell-based.
Data set [15] deals with T1, Receptor-type tyrosine-protein kinase FLT3 (Homo sapiens, UniProt P36888).
T1 sequence (P36888 whole entry): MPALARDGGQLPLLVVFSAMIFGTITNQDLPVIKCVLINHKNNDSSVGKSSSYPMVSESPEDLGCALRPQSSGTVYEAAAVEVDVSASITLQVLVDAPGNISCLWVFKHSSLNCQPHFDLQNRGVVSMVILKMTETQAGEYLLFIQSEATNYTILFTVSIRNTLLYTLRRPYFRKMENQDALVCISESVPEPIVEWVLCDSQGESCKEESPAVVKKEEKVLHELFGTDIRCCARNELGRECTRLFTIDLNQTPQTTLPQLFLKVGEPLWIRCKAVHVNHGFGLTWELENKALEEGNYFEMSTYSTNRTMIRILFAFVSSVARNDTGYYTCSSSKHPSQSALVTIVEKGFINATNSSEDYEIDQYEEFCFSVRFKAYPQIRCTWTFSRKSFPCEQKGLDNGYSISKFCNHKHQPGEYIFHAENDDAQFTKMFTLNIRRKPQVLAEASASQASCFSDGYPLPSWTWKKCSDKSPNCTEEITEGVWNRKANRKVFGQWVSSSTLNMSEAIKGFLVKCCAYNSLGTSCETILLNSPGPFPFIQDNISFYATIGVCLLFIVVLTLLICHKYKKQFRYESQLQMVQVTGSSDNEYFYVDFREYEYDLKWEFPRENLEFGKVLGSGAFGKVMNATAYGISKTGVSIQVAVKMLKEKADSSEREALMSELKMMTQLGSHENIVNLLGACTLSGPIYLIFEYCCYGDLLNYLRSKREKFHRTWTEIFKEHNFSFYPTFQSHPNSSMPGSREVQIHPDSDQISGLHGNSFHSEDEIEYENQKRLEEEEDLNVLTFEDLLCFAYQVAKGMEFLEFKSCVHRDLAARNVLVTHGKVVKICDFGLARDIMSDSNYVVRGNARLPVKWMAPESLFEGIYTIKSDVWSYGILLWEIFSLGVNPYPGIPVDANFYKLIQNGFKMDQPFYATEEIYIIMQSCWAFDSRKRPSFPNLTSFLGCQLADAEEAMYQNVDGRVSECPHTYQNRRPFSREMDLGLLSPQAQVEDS
Briefly: Binding affinity to wild-type human partial length FLT3 (V592 to Y969 residues) expressed in Escherichia coli after 1 hr by qPCR analysis.

Data set [16] concerns MOLM-13. Briefly: Induction of apoptosis in human MOLM13 cells assessed as late apoptotic cells at 1 uM after 48 hrs by Annexin V/propidium iodide staining based flow cytometry (reference value: 5.52%). It is filed as functional.
The test system of data set [17] is MV4-11. Briefly: Inhibition of MAPK in human MV4-11 cells assessed as ratio of phosphorylated ERK to beta-actin level at 100 nM after 2 hrs by Western blot analysis relative to control. It is filed as cell-based.
Data set [18] deals with MOLM-13. Briefly: Induction of apoptosis in human MOLM13 cells assessed as viable cells at 1 nM after 48 hrs by Annexin V/propidium iodide staining based flow cytometry (reference value: 88.2%). The format is functional. The note with it: MOLM-13, 48 h, read-out: Activity.
Data set [19] concerns MOLM-13. Nature of the data set: Induction of apoptosis in human MOLM13 cells assessed as necrotic cells at 10 nM after 48 hrs by Annexin V/propidium iodide staining based flow cytometry (reference value: 0.29%). It is filed as functional.
Data set [20] concerns MOLM-13. Nature of the data set: Induction of apoptosis in human MOLM13 cells assessed as late apoptotic cells at 1 nM after 48 hrs by Annexin V/propidium iodide staining based flow cytometry (reference value: 5.52%). It is filed as functional.
The test system of data set [21] is MV4-11. Nature of the data set: Antitumour activity against human MV4-11 cells xenografted in po dosed NOD/SCID mouse assessed as tumour growth inhibition administered daily for 14 days. It is filed as functional, organism-based.
The species entered for data set [22] is Homo sapiens. Nature of the data set: Inhibition of MAPK in human MOLM13 cells assessed as ratio of phosphorylated ERK to beta-actin level at 30 nM after 2 hrs by Western blot analysis relative to control. It is filed as cell-based.
Data set [23] in a line: Toxicity in NOD/SCID mouse xenografted with human MOLM13 cells at 1 to 10 mg/kg, po qd for 10 days. The format is organism-based. As to conditions: in vivo, 240 h.
The subject of data set [24] is MV4-11. Briefly: Cell cycle arrest in human MV4-11 cells assessed as accumulation at G0/G1 phase at 30 nM after 24 hrs by propidium iodide staining-based flow cytometric analysis (reference value: 48.76%). The format is functional.

SMILES strings stand for the structures. Where only a bound is given, the exact number is not on record here.

Regarding `C=CCn1cc(-c2ccc(NC(=O)Nc3cc(C(C)(C)C)on3)cc2)c2c(N)ncnc21`, the Activity is recorded as 2.06% in data set [1]; 11% in [2]; 35.23% in data set [5]; 23.5% in data set [8]; 11.83% in [10]; 32.51% in [13]. Moreover, the Activity in data set [16] was 46.8%; in [19], 0.12%; in [20], 8.57%; in data set [23], “Non-Toxic”; in data set [24], 96.25%. In addition, the fold change (FC) in data set [3] worked out at 0; in data set [12] it was 0; in data set [14] it was 0; in [17], 0; in data set [22] it was 0.1. The bioavailability (in general, the share of a dose that reaches the circulation, judged against a reference dose that is usually intravenous) in data set [4] amounted to 59.5%. In data set [6], the viability at 10 µM was found to be 18.1%. For the same compound, the IC50 (commonly the concentration at which inhibition is half-maximal) in data set [7] is 0.022 nM; in data set [9], more than 1000 nM; in [11] it was 0.089 nM. The Kd (commonly the constant that tells how readily two partners part at equilibrium) in [15] worked out at 4.37 nM. Besides, in data set [18], the viability at 0.001 µM was determined as 85%. Besides, the TGI result in data set [21] was “Dose-dependent effect”.
